# Values of other authors, collected in patent publication US20260293888A1, “METHODS OF TREATING MOLD” (priority 2023, published 2026).
smiles,measurement,setting,value
"OCCOCCOCCO [Triethylene glycol, triethylene glycol]",flash point,TEG alone,157 °C
same,boiling point,at a pressure of 101.325 kPa,286.5 °C
same,vapor pressure,compared to water,relative low vapor pressure compared to water
same,miscibility with water,water,miscible with water
